Assay results as given in patent US7291621B2, “Substituted biaryl amides C5a receptor modulators” (Neurogen Corporation, priority 2002, dated 2007).
Where two headings read alike, the source gives them in different places.

Molecular target: T1, C5a receptor (Homo sapiens, UniProt P21730)
T1 construct: endogenous in cells; host or cells: U937 cells differentiated with 1 mM dibutyryl cAMP
T1 sequence (P21730 1-350): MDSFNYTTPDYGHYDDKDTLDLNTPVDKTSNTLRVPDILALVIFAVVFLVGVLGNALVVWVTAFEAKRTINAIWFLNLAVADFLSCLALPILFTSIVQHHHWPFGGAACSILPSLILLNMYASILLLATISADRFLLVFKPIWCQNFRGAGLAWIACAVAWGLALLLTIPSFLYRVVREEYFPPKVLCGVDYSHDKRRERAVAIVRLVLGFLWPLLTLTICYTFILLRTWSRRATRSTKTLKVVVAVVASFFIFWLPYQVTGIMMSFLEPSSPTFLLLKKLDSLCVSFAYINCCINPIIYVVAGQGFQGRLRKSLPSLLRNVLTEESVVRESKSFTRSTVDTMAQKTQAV
Test: standard assay of C5a receptor mediated calcium mobilization
Format: cell-based
Settings: asterisk = tested in C5a receptor mediated calcium mobilization assay, read-out: Ca2+ Mob.
Experimental: U937 cells are grown in differentiation media (1 mM dibutyrl cAMP in RPMI 1640 medium containing 10% fetal bovine serum) for 48 hrs at 37° C. then reseeded onto 96-well plates suitable for use in a FLIPR™ Plate Reader (Molecular Devices Corp., Sunnyvale Calif.). Cells are grown an additional 24 hours (to 70-90% confluence) before the assay. The cells are then washed once with Krebs Ringer solution. FLUO-3 calcium sensitive dye (Molecular Probes, Inc. Eugene, Oreg.) is added to 10 μg/mL and incubated with the cells at room temperature for 1 to 2 hours. The 96 well plates are then washed to remove excess dye. Fluorescence responses, measured by excitation at 480 nm and emission at 530 nm, are monitored upon the addition of human C5a to the cells to a final concentration of 0.01-30.0 nM, using the FLIPR™ device (Molecular Devices).
The calcium mobilization assay described above may be readily adapted for identifying test compounds that have agonist or antagonist activity at the human C5a receptor.
For example, in order to identify antagonist compounds, differentiated U937 cells are washed and incubated with Fluo-3 dye as described above. One hour prior to measuring the fluorescence signal, a subset of the cells is incubated with 1 μM of at least one compound to be tested. The fluorescence response upon the subsequent addition of 0.3 nM (final concentration) human recombinant C5a is monitored using the FLIPR™ plate reader. Antagonist compounds elicit at least a 2-fold decrease in the fluorescence response relative to that measured in the presence of human C5a alone. Preferred antagonist compounds elicit at least a 5-fold, preferably at least a 10-fold, and more preferably at least a 20-fold decrease in the fluorescence response relative to that measured in the presence of human C5a alone.

Ki (Table I)	Ki (Table III)	Compound
< 1000 nM	–	COc1ccc2c(c1)CC(N(Cc1ccccc1)C(=O)c1ccccc1-c1ccccc1)C2 (stereo not shown) [compound 71, N-benzyl-N-(5-methoxy-indan-2-yl)-1,1′-biphenyl-2-carboxamide]
< 1000 nM	–	COc1cccc(-c2ccccc2C(=O)N(Cc2ccccc2)C2Cc3ccccc3C2)c1 [compound 62, N-benzyl-N-(indan-2-yl)-3′-methoxy-1,1′-biphenyl-2-carboxamide]
< 1000 nM	–	COc1cccc(-c2ccccc2C(=O)N(Cc2ccc(C)cc2)C2Cc3ccccc3C2)c1 [compound 89, N-(indan-2-yl)-3′-methoxy-N-(4-methylbenzyl)-1,1′-biphenyl-2-carboxamide]
< 1000 nM	–	COc1ccc(-c2ccccc2)c(C(=O)N(Cc2ccccc2)C2Cc3ccccc3C2)c1 [compound 66, N-benzyl-N-(indan-2-yl)-4-methoxy-1,1′-biphenyl-2-carboxamide]
< 1000 nM	–	CCSc1ccc(-c2ccccc2C(=O)N(Cc2ccccc2)Cc2ccccc2)cc1 [compound 38, N,N-dibenzyl-4′-(ethylthio)-1,1′-biphenyl-2-carboxamide]
< 1000 nM	–	O=C(c1ccccc1-c1ccc(OC(F)(F)F)cc1)N(Cc1ccccc1)Cc1ccccc1 [compound 36, N,N-dibenzyl-4′-(trifluoromethoxy)-1,1′-biphenyl-2-carboxamide]
< 1000 nM	–	O=C(c1ccccc1-c1ccsc1)N(Cc1ccc2ccccc2c1)C1Cc2ccccc2C1 [compound 86, N-(indan-2-yl)-N-(2-naphthylmethyl)-2-thien-3-ylbenzamide]
–	< 1000 nM	Cc1ccc(CN(C(=O)c2c(-c3ccccc3)ccc3ccccc23)C2Cc3ccccc3C2)cc1 [compound 240, 2-Phenyl-naphthalene 1-carboxylic acid (4-methyl-benzyl)-indan-2-yl-amide]
< 1000 nM	–	O=C(c1ccccc1-c1ccccc1)N(Cc1ccc(F)cc1)C1Cc2ccccc2C1 [compound 76, N-(indan-2-yl)-N-(4-fluorobenzyl)-1,1′-biphenyl-2-carboxamide]
< 1000 nM	–	COc1cccc(CN(C(=O)c2c(C)cccc2-c2ccccc2)C2Cc3ccccc3C2)c1 [compound 127, N-(indan-2-yl)-N-(3-methoxybenzyl)-3-methyl-1,1′-biphenyl-2-carboxamide]
< 1000 nM	–	COc1cc(CN(C(=O)c2ccccc2-c2ccsc2)C2Cc3ccccc3C2)cc(OC)c1 [compound 84, N-(indan-2-yl)-N-(3,5-dimethoxybenzyl)-2-thien-3-ylbenzamide]
< 1000 nM	–	O=C(c1cccc2c1-c1ccccc1C2)N(Cc1ccc2c(c1)OCO2)C1Cc2ccccc2C1 [compound 65, N-(1,3-benzodioxol-5-ylmethyl)-N-(indan-2-yl)-9H-fluorene-4-carboxamide]
< 1000 nM	–	COc1cccc(CN(C(=O)c2cc(OC)ccc2-c2ccccc2)C2Cc3ccccc3C2)c1 [compound 103, N-(indan-2-yl)-4-methoxy-N-(3-methoxybenzyl)-1,1′-biphenyl-2-carboxamide]
< 1000 nM	–	COc1cccc(-c2ccccc2)c1C(=O)N(Cc1ccccc1)C1Cc2ccccc2C1 [compound 67, N-benzyl-N-(indan-2-yl)-3-methoxy-1,1′-biphenyl-2-carboxamide]
< 1000 nM	–	O=C(c1ccccc1-c1ccccc1F)N(Cc1cccc(F)c1)C1Cc2ccccc2C1 [compound 96, N-(indan-2-yl)-2′-fluoro-N-(3-fluorobenzyl)-1,1′-biphenyl-′-carboxamide]
< 1000 nM	–	Cc1ccc(CN(C(=O)c2ccccc2-c2ccc(C)cc2)C2Cc3ccccc3C2)cc1 [compound 88, N-(indan-2-yl)-4′-methyl-N-(4-methylbenzyl)-1,1′-biphenyl-2-carboxamide]
< 1000 nM	–	O=C(c1ccccc1-c1ccccc1)N(Cc1ccccc1F)C1Cc2ccccc2C1 [compound 78, N-(indan-2-yl)-N-(2-fluorobenzyl)-1,1′-biphenyl-2-carboxamide]
–	< 1000 nM	COc1ccc2ccccc2c1C(=O)N(Cc1ccccc1C)C1Cc2ccccc2C1 [compound 224, 2-Methoxy-naphthalene-1-carboxylic acid (2-methyl-benzyl)-indan-2-yl-amide]
< 1000 nM	–	Cc1cccc(CN(C(=O)c2ccccc2-c2ccccc2F)C2Cc3ccccc3C2)c1 [compound 99, N-(indan-2-yl)-2′-fluoro-N-(3-methylbenzyl)-1,1′-biphenyl-2-carboxamide]

Ki (Table I)	Ki (Table III)	Compound
–	< 1000 nM	Cc1ccc2ccccc2c1C(=O)N(CCc1ccccc1)C1Cc2ccccc2C1 [compound 235, 2-Methyl-naphthalene-1-carboxylic acid indan-2-yl-phenethyl-amide]
< 1000 nM	–	Cc1ccc(CN(C(=O)c2ccccc2-c2ccccc2)C2Cc3ccccc3C2)cc1 [compound 75, N-(indan-2-yl)-N-(4-methylbenzyl)-1,1′-biphenyl-2-carboxamide]
< 1000 nM	–	Cc1ccc(-c2ccccc2C(=O)N(Cc2cccc(F)c2)C2Cc3ccccc3C2)cc1 [compound 95, N-(indan-2-yl)-N-(3-fluorobenzyl)-4′-methyl-1,1′-biphenyl-2-carboxamide]
–	< 1000 nM	COc1ccc2ccccc2c1C(=O)N(Cc1ccc(C)cc1)C1Cc2ccccc2C1 [compound 223, 2-Methoxy-naphtlalene-1-carboxylic acid (4-methyl-benzyl)-indan-2-yl-amide]
–	< 1000 nM	Cc1ccc(CN(C(=O)c2c(O)ccc3ccccc23)C2Cc3ccccc3C2)cc1 [compound 238, 2-Hydroxy-naphthalene-1-carboxylic acid (4-methyl-benzyl)-indan-2-yl-amide]
< 1000 nM	–	Cc1ccc(-c2ccccc2C(=O)N(Cc2ccccc2)C2Cc3ccccc3C2)cc1 [compound 58, N-benzyl-N-(indan-2-yl)4′-methyl-1,1′-biphenyl-2-carboxamide]
< 1000 nM	–	Cc1cccc(-c2ccccc2)c1C(=O)N(Cc1ccc(F)c(F)c1)C1Cc2ccccc2C1 [compound 126, N-(3,4-difluorobenzyl)-N-(indan-2-yl)-3-methyl-1,1′-biphenyl-2-carboxamide]
< 1000 nM	–	COc1cccc(-c2ccccc2C(=O)N(Cc2ccc3c(c2)OCO3)C2Cc3ccccc3C2)c1 [compound 64, N-(1,3-benzodioxol-5-ylmethyl)-N-(indan-2-yl)-3′-methoxy-1,1′-biphenyl-2-carboxamide]
< 1000 nM	–	O=C(c1ccccc1-c1ccccc1)N(Cc1cccc(F)c1)C1Cc2ccccc2C1 [compound 77, N-(indan-2-yl)-N-(3-fluorobenzyl)-1,1′-biphenyl-′-carboxamide]
< 1000 nM	–	COc1ccc(-c2ccccc2)c(C(=O)N(Cc2ccc(F)cc2)C2Cc3ccccc3C2)c1 [compound 110, N-(indan-2-yl)-N-(4-fluorobenzyl)-4-methoxy-1,1′-biphenyl-2-carboxamide]
< 1000 nM	–	COc1ccccc1CN(C(=O)c1ccccc1-c1ccccc1F)C1Cc2ccccc2C1 [compound 82, N-(indan-2-yl)-2′-fluoro-N-(2-methoxybenzyl)-1,1′-biphenyl-2-carboxamide]
< 1000 nM	–	Cc1cccc(-c2ccccc2)c1C(=O)N(Cc1cccc(F)c1)C1Cc2ccccc2C1 [compound 124, N-(indan-2-yl)-N-(3-fluorobenzyl)-3-methyl-1,1′-biphenyl-2-carboxamide]
< 1000 nM	–	O=C(c1ccccc1-c1ccccc1)N(Cc1ccccc1)Cc1ccccc1 [compound 47, N,N-dibenzyl-1,1′-biphenyl-2-carboxamide]
< 1000 nM	–	O=C(c1ccccc1-c1ccccc1)N(Cc1ccc2c(c1)OCO2)C1Cc2ccccc2C1 [compound 79, N-(1,3-benzodioxol-5-ylmethyl)-N-(indan-2-yl)-1,1′-biphenyl-2-carboxamide]
< 1000 nM	–	Cc1ccc(-c2ccsc2)c(C(=O)N(Cc2ccccc2)C2Cc3ccccc3C2)c1 [compound 118, N-benzyl-N-(indan-2-yl)-5-methyl-2-thien-3-ylbenzamide]
< 1000 nM	–	Cc1cccc(-c2ccccc2)c1C(=O)N(CCc1ccccc1)C1Cc2ccccc2C1 [compound 130, N-(indan-2-yl)-3-methyl-N-(2-phenylethyl)-1,1′-biphenyl-2-carboxamide]
< 1000 nM	–	O=C(c1ccccc1-c1ccc(F)cc1)N(Cc1ccccc1)Cc1ccccc1 [compound 34, N,N-dibenzyl4′-fluoro-1,1′-biphenyl-2-carboxamide]
< 1000 nM	–	Cc1cccc(CN(C(=O)c2c(C)cccc2-c2ccccc2)C2Cc3ccccc3C2)c1 [compound 121, N-(indan-2-yl)-3-methyl-N-(3-methylbenzyl)-1,1′-biphenyl-2-carboxamide]
